Drawing on patent US20130261077A1 (priority 2012, published 2013), this text covers IC50 and Kd for 17 molecules.

Each structure is given as a SMILES string.

In the assay the target is T1, FimH-CRD (Escherichia coli, UniProt P08191).
T1 construct: The first 177 amino acids of the FimH protein; thrombin tag (printed as 'fusion protein with thrombin') (cleaved yes); made in house; host or cells: bacteria (pET21b plasmid)
T1 sequence (P08191 22-177): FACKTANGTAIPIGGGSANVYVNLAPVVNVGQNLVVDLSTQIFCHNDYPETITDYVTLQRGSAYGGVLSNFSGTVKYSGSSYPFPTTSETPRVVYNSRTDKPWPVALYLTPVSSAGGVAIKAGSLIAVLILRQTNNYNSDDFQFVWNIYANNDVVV
In words: Competitive binding assay by fluorescence polarization, assay 1 (compounds prepared by manual serial dilution). The method, boiled down: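 Compounds at 0.4 nM–75 μM final (12 points, 3-fold steps, duplicate) compete with a 5 nM Alexa 647 mannoside probe for 60 nM FimH-CRD; 5 h room-temperature incubation in pH 7.0 Tris buffer with 2.5% DMSO, FP read-out, Kd from fitted curves. Assay 1 uses manual dilution, assay 2 robot-made frozen/thawed plates.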
For orientation: Fluorescence polarisation rises when a labelled molecule tumbles more slowly, as on binding a larger partner.
In the case of `CNS(=O)(=O)c1cccc(-c2cccc([C@H]3O[C@H](CO)[C@@H](O)[C@H](O)[C@@H]3O)c2)c1` [Compound 50, N-methyl-3-[3-[(2R,3S,4R,5S,6R)-3,4,5-trihydroxy-6-(hydroxymethyl)tetrahydropyran-2-yl]phenyl]benzenesulfonamide], the IC50 (usually the concentration that gives 50% inhibition) turned out to be 39 nM and the Kd (usually the free concentration of one partner at which half of the binding sites on the other are occupied at equilibrium, for simple one-to-one binding) was 10.7 ± 5.2 nM. For `Cc1cnc(NC(=O)c2cccc([C@H]3O[C@H](CO)[C@@H](O)[C@H](O)[C@@H]3O)c2)s1` [Compound 28, N-(5-methylthiazol-2-yl)-3-((2R,3S,4R,5S,6R)-3,4,5-trihydroxy-6-(hydroxymethyl)tetrahydro-2H-pyran-2-yl)benzamide], the IC50 came to 56 nM and the dissociation constant Kd is 16.7 ± 7.5 nM.

For `O=C(Nc1nc2ccc(Cl)cc2s1)c1cccc([C@H]2O[C@H](CO)[C@@H](O)[C@H](O)[C@@H]2O)c1` [Compound 30, N-(6-chlorobenzo[d]thiazol-2-yl)-3-((2R,3S,4R,5S,6R)-3,4,5-trihydroxy-6-(hydroxymethyl)tetrahydro-2H-pyran-2-yl)benzamide], the IC50 was found to be 53 nM and the Kd is 9.8 ± 1.8 nM. The matching figures for `CNC(=O)c1cccc(Oc2ccc([C@H]3O[C@H](CO)[C@@H](O)[C@H](O[C@H]4O[C@H](CO)[C@@H](O)[C@H](O)[C@@H]4O)[C@@H]3O)cc2)c1` [Compound 268, 3-[4-[(2R,3R,4R,5R,6R)-3,5-Dihydroxy-6-(hydroxymethyl)-4-[(2R,3S,4S,5S,6R)-3,4,5-trihydroxy-6-(hydroxymethyl)tetrahydropyran-2-yl]oxy-tetrahydropyran-2-yl]phenoxy]-N-methyl-benzamide]: 77 nM and 19 ± 3.8 nM. Regarding `CNC(=O)c1cccc(COc2ccc(C3O[C@H](CO)[C@@H](O)[C@H](O)[C@@H]3O)cc2)c1` (some centres unmarked) [Compound 248], the Kd stood at 14 ± 8.4 nM.

`Nc1cccc(-c2cccc([C@H]3O[C@H](CO)[C@@H](O)[C@H](O)[C@@H]3O)c2)c1` [Compound 16, (2R,3S,4R,5S,6R)-2-[3-(3-aminophenyl)phenyl]-6-(hydroxymethyl)tetrahydropyran-3,4,5-triol] had an IC50 of 247 nM and a Kd of 37 ± 33.7 nM. The matching figures for `OC[C@H]1O[C@H](O[C@H]2[C@H](O)[C@@H](CO)O[C@H](C/C=C/C3CCCCC3)[C@H]2O)[C@@H](O)[C@@H](O)[C@@H]1O` [Compound 282, (2R,3S,4S,5S,6R)-2-[(2R,3R,4R,5R,6R)-2-[(E)-3-Cyclohexylallyl]-3,5-dihydroxy-6-(hydroxymethyl)tetrahydropyran-4-yl]oxy-6-(hydroxymethyl)tetrahydropyran-3,4,5-triol]: 212 nM and 40.6 ± 0.03 nM. The matching figures for `Cc1cc(C)cc(Oc2cccc([C@H]3O[C@H](CO)[C@@H](O)[C@H](O[C@H]4O[C@H](CO)[C@@H](O)[C@H](O)[C@@H]4O)[C@@H]3O)c2)c1` [Compound 274, (2R,3S,4S,5S,6R)-2-[(2R,3R,4R,5R,6R)-2-[3-(3,5-Dimethylphenoxy)phenyl]-3,5-dihydroxy-6-(hydroxymethyl)tetrahydropyran-4-yl]oxy-6-(hydroxymethyl)tetrahydropyran-3,4,5-triol]: 34 nM and 43.1 ± 53 nM.

Consider `Cc1ccc(-c2cccc([C@H]3O[C@H](CO)[C@@H](O)[C@H](O)[C@@H]3O)c2)cc1` [Compound 6, (2R,3S,4R,5S,6R)-2-(hydroxymethyl)-6-(4′-methyl-[1,1′-biphenyl]-3-yl)tetrahydro-2H-pyran-3,4,5-triol], for which the IC50 was determined as 87 nM and the equilibrium dissociation constant (Kd) stood at 13.7 ± 7.7 nM. The matching figures for `COc1ccc([C@H]2O[C@H](CO)[C@@H](O)[C@H](O[C@H]3O[C@H](CO)[C@@H](O)[C@H](O)[C@@H]3O)[C@@H]2O)cc1O` [Compound 289, (2R,3S,4S,5S,6R)-2-[(2R,3R,4R,5R,6R)-3,5-Dihydroxy-2-(3-hydroxy-4-methoxy-phenyl)-6-(hydroxymethyl)tetrahydropyran-4-yl]oxy-6-(hydroxymethyl)tetrahydropyran-3,4,5-triol]: 175 nM and 162 ± 241 nM. As for `O=C(Nc1ccc2ccccc2c1)c1cccc([C@H]2O[C@H](CO)[C@@H](O)[C@H](O)[C@@H]2O)c1` [Compound 32, N-(naphthalen-2-yl)-3-((2R,3S,4R,5S,6R)-3,4,5-trihydroxy-6-(hydroxymethyl)tetrahydro-2H-pyran-2-yl)benzamide], the IC50 was found to be 45 nM and the Kd amounted to 22.6 ± 18.7 nM. Molecule `C[C@@H](NC(=O)Oc1cccc([C@H]2O[C@H](CO)[C@@H](O)[C@H](O)[C@@H]2O)c1)c1ccccc1` [Compound 72, 3-((2R,3S,4R,5S,6R)-3,4,5-trihydroxy-6-(hydroxymethyl)tetrahydro-2H-pyran-2-yl)phenyl (R)-1-phenylethylcarbamate] came in with an IC50 of 60 nM and an equilibrium dissociation constant (Kd) of 16.2 ± 5.4 nM.

As for `O=C(NCCc1ccccc1)c1cccc([C@H]2O[C@H](CO)[C@@H](O)[C@H](O)[C@@H]2O)c1` [Compound 34, N-phenethyl-3-((2R,3S,4R,5S,6R)-3,4,5-trihydroxy-6-(hydroxymethyl)tetrahydro-2H-pyran-2-yl)benzamide], the IC50 was 124 nM and binding was characterised by a dissociation constant (Kd) of 38 ± 7.1 nM. Molecule `OC[C@H]1O[C@H](c2cccc(C#Cc3cc(Cl)cc(Cl)c3)c2)[C@@H](O)[C@@H](O)[C@@H]1O` [Compound 92, (2R,3S,4R,5S,6R)-2-[3-[2-(3,5-Dichlorophenyl)ethynyl]phenyl]-6-(hydroxymethyl)tetrahydropyran-3,4,5-triol] had a Kd of 24.9 ± 11.3 nM. Molecule `CS(=O)(=O)c1ccc(-c2cccc([C@H]3O[C@H](CO)[C@@H](O)[C@H](O)[C@@H]3O)c2)cc1` [Compound 21] had an IC50 of 92 nM and a Kd of 12.3 ± 5.1 nM. Turning to `COC(=O)c1cccc(Oc2ccc([C@H]3O[C@H](CO)[C@@H](O)[C@H](O)[C@@H]3O)cc2)c1` [Compound 56, Methyl 3-(4-((2R,3S,4R,5S,6R)-3,4,5-trihydroxy-6-(hydroxymethyl)tetrahydro-2H-pyran-2-yl)phenoxy)benzoate], the half-inhibitory concentration (IC50) stood at 14 nM and binding was put at a Kd of 5.4 ± 0.3 nM. The matching figures for `CN(C)Cc1ccccc1-c1cccc([C@H]2O[C@H](CO)[C@@H](O)[C@H](O)[C@@H]2O)c1` [Compound 14, (2R,3S,4R,5S,6R)-2-(2′-((dimethylamino)methyl)-[1,1′-biphenyl]-3-yl)-6-(hydroxymethyl)tetrahydro-2H-pyran-3,4,5-triol]: 551 nM and 77.8 ± 70.4 nM.
